In brackets after ≈: the same amount, converted by molar mass. Like-named read-outs stand apart in the source and are kept apart here.
Legend:
Type in all cases: cell-based
[1] = tested on: Trichophyton mentagrophytes; test: Broth microdilution MIC (CLSI M38-A2, modified); conditions: 35°C, 7 days
Procedure: (§1) To evaluate its antifungal activity, […] of dermatophytes were tested: two clinical strains of Trichophyton rubrum (Tr1 and Tr2), Trichophyton rubrum ATCC MYA 3108, two clinical strains of Trichophyton mentagrophytes (Tm1 and Tm2), and Trichophyton mentagrophytes ATCC 40131 (Tm3). The microorganisms were obtained from the collection of the Clinical Mycology Laboratory of the Department of Clinical Analyses at the School of Pharmaceutical Sciences of Universidade Estadual Paulista (UNESP). The strains were cultivated on Sabouraud dextrose agar (Difco, BD Biosciences) and incubated at 28°C for 7-15 days. For all experiments, the strains were cultivated on Potato Dextrose Agar (Difco, BD Biosciences) and incubated at 28°C as described above or until sporulation. The dilution of the synthetic compounds was performed with DMSO (Synth, Diadema, Sao Paulo, Brazil) as described by Scorzoni et al.. […] The antifungal drugs were diluted according to the CLSI […]-A2 document. Stock solutions of Fluconazole (Sigma-Aldrich, St. Louis, MO, USA) were prepared, considering its power. Serial twofold dilutions were prepared according to the recommendations of Zhang and collaborators, with some modifications. The antifungal activity tests were performed using the broth microdilution method as described in […]-A2, a document produced by the Clinical and Laboratory Standards Institute (CLSI, 2008), with modifications. The medium used was RPMI 1640 with L-glutamine (Sigma-Aldrich, St. Louis, MO, USA) buffered to pH 7.0 with 0.165 M morpholinepropanesulfonic acid (MOPS) (Sigma-Aldrich, St. Louis, MO, USA), supplemented with 2% glucose. […] The suspension of conidia was then transferred to small sterile test tubes where they remained for 40 minutes to separate the microconidia, which were lighter and therefore present in the supernatant. […] These suspensions were diluted in RPMI 1640 (Sigma-Aldrich, St. […] Positive (100 μL of RPMI medium with 100 μL of inoculum) and negative (200 μL of RPMI) controls were included in all experiments. The plates were incubated with agitation at 35°C for 7 days. The MIC reading was performed by spectrophotometry at 490 nm.

Trichophyton rubrum [2] = test: Broth microdilution MIC (CLSI M38-A2, modified); conditions: 35°C, 7 days
Procedure: as §1

[3] = tested on: Trichophyton mentagrophytes; test: Minimum fungicide concentration (MFC)
Procedure: (§2) A qualitative analysis of the fungal viability was performed by transferring a portion of the wells to a plate with Sabouraud (Difco, BD Biosciences) medium and incubating it at 35°C for the time determined for each fungal agent. […] A visual reading was performed to confirm the death or growth inhibition provided by fluconazole and the sixteen semisynthetic substances derived from protocatechuic acid.

Trichophyton rubrum [4] = test: Minimum fungicide concentration (MFC)
Procedure: as §2

[5] = tested on: Trichophyton mentagrophytes; test: Checkerboard synergism assay with fluconazole; conditions: for MIC, substances alone / MIC: checkerboard, 168 hours; for MIC: Trichophyton mentagrophytes, read-out: MIC, substances alone
Procedure: (§3) The drug activity was assessed using a checkerboard method derived from a standardised procedure established by the National Committee for Clinical Laboratory Standards ([…]-A2). Briefly, the test was performed on the same medium used for susceptibility testing. Volumes of 50 μL of each drug in a concentration four times the final concentration were dispensed in 96-well plates ([…], Switzerland). To each well, 100 μL of the fungal suspension was added to produce a final concentration of 5.0 × 10^3 CFU/mL. As a negative control, we used 200 μL of RPMI, while as a positive control, we used 100 μL of RPMI medium with 100 μL of inoculum. The plates were incubated at 35°C, and the reading was completed after 168 hours. We conducted visual and spectrophotometric readings at 490 nm. To determine the effect of combinatorial fractions, we calculated the fractional inhibitory concentration (FIC). The FIC was calculated by taking the MIC of the substance in combination/MIC of the substance alone. The sum of the fractional inhibitory concentration (FIC) of each substance consists of the fractional inhibitory concentration index: (the MIC of drug A in combination/the MIC of drug A alone) + (the MIC of drug B in combination/the MIC of drug B alone).

Trichophyton rubrum [6] = test: Checkerboard synergism assay with fluconazole
Procedure: as §3

[7] = tested on: NOK (oral human keratinocyte) cell lines; test: Sulphorhodamine B cytotoxicity assay; conditions: NOK cells, 24 hours
Procedure: The cytotoxicity of sixteen semisynthetic compounds derived from protocatechuic acid was assessed using a sulphorhodamine B assay in NOK (oral human keratinocyte) cell lines obtained from the American Type Culture Collection (Manassas, VA, USA). The strains were maintained in bottles appropriate for cell culture with keratinocyte serum free medium (Gibco, Life Technologies) and incubated in standard conditions of 37°C and 5% CO2. Cell concentrations ranging from 2.5 to 5.0 × 10^4 cells/mL were used for the formation of cell monolayers. The concentrations of pure substances were kept in contact with the cells for 24 hours. After the incubation period, the cells were treated with the sulphorhodamine B reagent (Sigma-Aldrich, St. Louis, MO, USA) as previously described by Skehan et al., with some modifications.

[8] = Tm3, T. mentagrophytes ATCC 40131
[9] = Tr1, T. rubrum clinical isolate
[10] = Tr2, T. rubrum clinical isolate

SMILES	MIC ([1]; Tm1, clinical isolate) [µg/mL]	MIC ([1]; Tm2, clinical isolate) [µg/mL]	MIC [1, 8] [µg/mL]	MIC (Trichophyton rubrum [2]; [9]) [µg/mL]	MIC (Trichophyton rubrum [2]; [10]) [µg/mL]	MIC (Trichophyton rubrum [2]; Tr3, T. rubrum ATCC MYA 3108) [µg/mL]	MFC ([3]; Tm1, clinical isolate) [µg/mL]	MFC ([3]; Tm2, clinical isolate) [µg/mL]	MFC [3, 8] [µg/mL]	MFC (Trichophyton rubrum [4]; [9]) [µg/mL]	MFC (Trichophyton rubrum [4]; [10]) [µg/mL]	MFC (Trichophyton rubrum [4]; Tr3, T. rubrum ATCC MYA 3108) [µg/mL]	MIC of the protocatechuate, substances combined [5] [µg/mL]	association type (in words) [5]	MIC, substances alone ([5]; Tm1) [µg/mL]	MIC, substances alone ([5]; Tm3 (ATCC 40131)) [µg/mL]	FIC index (Trichophyton rubrum [6])	association type (in words) (Trichophyton rubrum [6])	MIC, substances alone (Trichophyton rubrum [6]; Tr1, checkerboard, 168 hours) [µg/mL]	Cytotoxicity IC50 [7] [µg/mL]	also measured
CCCCCCCCCOC(=O)c1ccc(O)c(O)c1 [Protocatechuate nonyl, nonyl protocatechuate]	3.9 (≈ 13.9 µM)	3.9 (≈ 13.9 µM)	3.9 (≈ 13.9 µM)	1.95 (≈ 6.96 µM)	3.9 (≈ 13.9 µM)	1.95 (≈ 6.96 µM)	3.9 (≈ 13.9 µM)	3.9 (≈ 13.9 µM)	3.9 (≈ 13.9 µM)	1.95 (≈ 6.96 µM)	3.9 (≈ 13.9 µM)	3.90 (≈ 13.9 µM)	0.03	additive	3.9	3.9	1.0	additive	1.9	52.1	FIC index [5]: 1.0; MIC of fluconazole, substances combined [5]: 0.5 µg/mL; reduction in the MIC of the protocatechuate [5]: 130 fold; MIC of the protocatechuate, substances combined (Trichophyton rubrum [6]): 0.03 µg/mL; reduction in the MIC of the protocatechuate (Trichophyton rubrum [6]): 63.33 times
OC(Cn1cncn1)(Cn1cncn1)c1ccc(F)cc1F [FLU, Fluconazole]																					MIC ([5]; ATCC40131, Tm3 (ATCC 40131)): 0.5 µg/mL; MIC ([5]; Tm1): 1 µg/mL; MIC (Trichophyton rubrum [6]; Trichophyton rubrum, Tr1, checkerboard, 168 hours, read-out: MIC, substances alone): 2 µg/mL
CCCCCCCOC(=O)c1ccc(O)c(O)c1 [Protocatechuate heptyl, protocatechuate heptyl]	3.9 (≈ 15.5 µM)	0.97 (≈ 3.84 µM)	3.9 (≈ 15.5 µM)	1.95 (≈ 7.73 µM)	1.95 (≈ 7.73 µM)	1.95 (≈ 7.73 µM)	3.9 (≈ 15.5 µM)	0.97 (≈ 3.84 µM)	3.9 (≈ 15.5 µM)	1.95 (≈ 7.73 µM)	1.95 (≈ 7.73 µM)	1.95 (≈ 7.73 µM)	0.03	synergistic	3.9	3.9	1.0	additive	1.9	78.1	reduction in the MIC of fluconazole [5]: fourfold; FIC index ([5]; listed as 9): 0.48; reduction in the MIC of fluconazole ([5]; listed as 9): four-
CCCCCOC(=O)c1ccc(O)c(O)c1 [Protocatechuate pentyl, pentyl protocatechuate]	3.90 (≈ 17.4 µM)	7.8 (≈ 34.8 µM)	7.8 (≈ 34.8 µM)	7.8 (≈ 34.8 µM)	7.8 (≈ 34.8 µM)	7.8 (≈ 34.8 µM)	15.6 (≈ 69.6 µM)	7.8 (≈ 34.8 µM)	7.8 (≈ 34.8 µM)	7.8 (≈ 34.8 µM)	7.8 (≈ 34.8 µM)	7.8 (≈ 34.8 µM)	0.03	additive	3.9	7.8	1.0	additive	7.8	57.0	FIC index [5]: 1.0; MIC of fluconazole, substances combined [5]: 0.5 µg/mL; reduction in the MIC of the protocatechuate [5]: 130 fold; MIC of fluconazole, substances combined (Trichophyton rubrum [6]): 0.12 µg/mL; MIC of the protocatechuate, substances combined (Trichophyton rubrum [6]): 7.8 µg/mL; reduction in the MIC of fluconazole (Trichophyton rubrum [6]): 16.66 times
CCCCCCOC(=O)c1ccc(O)c(O)c1 [Protocatechuate hexyl, hexyl protocatechuate]	1.95 (≈ 8.18 µM)	3.9 (≈ 16.4 µM)	3.90 (≈ 16.4 µM)	3.9 (≈ 16.4 µM)	1.95 (≈ 8.18 µM)	3.9 (≈ 16.4 µM)	3.90 (≈ 16.4 µM)	3.9 (≈ 16.4 µM)	7.80 (≈ 32.7 µM)	3.9 (≈ 16.4 µM)	3.90 (≈ 16.4 µM)	3.9 (≈ 16.4 µM)	0.03	additive	1.9	3.9	1.1	indifferent	3.9	66.5	FIC index [5]: 0.72; MIC of the protocatechuate, substances combined (Trichophyton rubrum [6]): 0.48 µg/mL; reduction in the MIC of the protocatechuate (Trichophyton rubrum [6]): 8.125 times

From article PMC4086519, “Anti-Trichophyton Activity of Protocatechuates and Their Synergism with Fluconazole” (Evidence-based Complementary and Alternative Medicine : eCAM, 2014)
